Non-standard residues stand in square brackets, D forms with d. Residues, ends and D or L forms follow the SMILES beside them. ξ: configuration not given here. *: point of attachment. hCys = N[C@@H](CCS)C(=O)O; Dap = NC[C@H](N)C(=O)O; ξDap = NCC(N)C(=O)O; ClAc = O=C(CCl)*
Tests used:
Assay in all cases: DELFIA
[1] = target: Apoptosis regulator Bcl-2 (Homo sapiens, UniProt P10415)
Procedure: (§1) After 1 h of incubation at RT to allow the immunoreaction to complete, a second washing step allowed removal of the unbound protein in complex with Eu antibodies if displaced by a test compound. […] Each well received a final DMSO concentration equal to 1%. Protein, peptide, and antibody solutions were prepared in DELFIA assay buffer (PerkinElmer).

[2] = target: T1, Bcl-2-related protein A1 [1-149] (Human, UniProt Q16548)
T1 construct: 1-149
T1 sequence (Q16548 whole entry): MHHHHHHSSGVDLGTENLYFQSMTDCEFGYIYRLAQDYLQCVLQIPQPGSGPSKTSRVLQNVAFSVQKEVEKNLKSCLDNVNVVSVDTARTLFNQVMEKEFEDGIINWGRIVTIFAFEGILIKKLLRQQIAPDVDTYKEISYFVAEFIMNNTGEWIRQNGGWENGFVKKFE
Procedure: as §1

[3] = target: Isoform Bcl-X(L) of Bcl-2-like protein 1 (Bcl-xL) (Homo sapiens, UniProt Q07817)
Procedure: as §1

[4] = target: Induced myeloid leukemia cell differentiation protein Mcl-1 (Homo sapiens, UniProt Q07820)
Procedure: as §1

Chain of Apoptosis regulator Bcl-2 (P10415 whole entry): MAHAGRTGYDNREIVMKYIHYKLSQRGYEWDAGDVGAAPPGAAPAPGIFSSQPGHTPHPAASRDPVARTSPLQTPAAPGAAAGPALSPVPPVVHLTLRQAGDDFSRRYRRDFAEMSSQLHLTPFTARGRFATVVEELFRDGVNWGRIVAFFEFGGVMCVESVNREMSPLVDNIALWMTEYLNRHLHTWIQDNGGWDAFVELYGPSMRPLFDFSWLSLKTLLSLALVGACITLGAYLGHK
Chain of Isoform Bcl-X(L) of Bcl-2-like protein 1 (Bcl-xL) (Q07817 whole entry G70A, canonical isoform): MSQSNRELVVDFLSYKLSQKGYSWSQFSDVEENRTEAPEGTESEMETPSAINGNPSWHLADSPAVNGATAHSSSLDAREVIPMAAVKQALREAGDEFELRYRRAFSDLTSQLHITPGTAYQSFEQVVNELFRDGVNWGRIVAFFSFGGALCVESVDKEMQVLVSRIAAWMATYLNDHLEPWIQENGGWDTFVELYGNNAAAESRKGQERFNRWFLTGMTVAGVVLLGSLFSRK
Chain of Induced myeloid leukemia cell differentiation protein Mcl-1 (Q07820 whole entry): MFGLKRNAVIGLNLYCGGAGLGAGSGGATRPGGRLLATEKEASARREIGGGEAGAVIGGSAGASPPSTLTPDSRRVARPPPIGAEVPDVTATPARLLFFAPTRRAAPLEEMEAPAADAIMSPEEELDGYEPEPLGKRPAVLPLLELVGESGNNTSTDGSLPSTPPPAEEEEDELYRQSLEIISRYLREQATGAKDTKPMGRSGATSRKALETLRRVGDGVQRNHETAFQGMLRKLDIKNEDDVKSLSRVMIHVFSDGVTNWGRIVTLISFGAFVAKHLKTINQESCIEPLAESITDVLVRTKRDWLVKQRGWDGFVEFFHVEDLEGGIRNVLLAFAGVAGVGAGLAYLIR

IC50 [1] [µM]	IC50 [2] [µM]	IC50 [3] [µM]	IC50 [4] [µM]	Kd ([4]; pH 7.4, 25 °C) [µM]	Molecule	Kd ([2]; pH 7.4, 25 °C) [µM]	Kd ([3]; pH 7.4) [µM]
–	> 1	–	> 1	–	CC1(C)CCC(CN2CCN(c3ccc(C(=O)NS(=O)(=O)c4ccc(NCC5CCOCC5)c([N+](=O)[O-])c4)c(Oc4cnc5[nH]ccc5c4)c3)CC2)=C(c2ccc(Cl)cc2)C1	–	–
> 1	0.083	> 1	0.266	–	CC(=O)N[C@@H](CCS)C(=O)N[C@@H](C)C(=O)N[C@H](C(=O)N[C@@H](CCC(N)=O)C(=O)N[C@@H](CC(C)C)C(=O)N[C@@H](CCCNC(=N)N)C(=O)N[C@@H](CCCNC(=N)N)C(=O)N[C@@H](Cc1ccccc1)C(=O)NCC(=O)N[C@@H](CC(=O)O)C(=O)N[C@@H](CCCCN)C(=O)N[C@@H](CC(C)C)C(=O)N[C@@H](CC(N)=O)C(=O)N[C@@H](Cc1ccccc1)C(=O)N[C@@H](CCCNC(=N)N)C(=O)N[C@@H](CCC(N)=O)C(=O)N[C@@H](CCCCN)C(=O)N[C@@H](CC(C)C)C(=O)N[C@@H](CC(C)C)C(=O)N[C@@H](CC(N)=O)C(N)=O)[C@@H](C)O (Ac-[hCys]ATQLRRFGDKLNFRQKLLN-NH2)	–	–
0.199	0.0139	0.22	0.032	–	C=CCCC[C@](C)(NC(=O)[C@H](CC(=O)O)NC(=O)CNC(=O)[C@@H](NC(=O)[C@](C)(CCCC=C)NC(=O)[C@H](CCCNC(=N)N)NC(=O)[C@H](CC(C)C)NC(=O)[C@H](CCC(=O)O)NC(=O)[C@H](CCC(N)=O)NC(=O)[C@H](C)NC(=O)C(CNC(=O)CCl)NC(C)=O)[C@@H](C)CC)C(=O)N[C@@H](Cc1ccccc1)C(=O)N[C@@H](CC(N)=O)C(=O)N[C@@H](C)C(=O)N[C@@H](Cc1ccc(O)cc1)C(=O)N[C@@H](Cc1ccc(O)cc1)C(=O)N[C@@H](C)C(=O)N[C@@H](CCCNC(=N)N)C(=O)N[C@@H](CCCNC(=N)N)C(N)=O (some centres not stated) [130D11]	–	–
–	–	–	0.023	0.002	CC[C@H](C)[C@H](NC(=O)C(CNC(=O)CCl)NC(C)=O)C(=O)N[C@@H](C)C(=O)N[C@@H](CCC(N)=O)C(=O)N[C@@H](CCC(=O)O)C(=O)N[C@@H](CC(C)C)C(=O)N[C@@H](CCCNC(=N)N)C(=O)N[C@@H](CCCNC(=N)N)C(=O)N[C@H](C(=O)NCC(=O)N[C@@H](CC(=O)O)C(=O)N[C@@H](CCC(=O)O)C(=O)N[C@@H](Cc1ccccc1)C(=O)N[C@@H](CC(N)=O)C(=O)N[C@@H](C)C(=O)N[C@@H](Cc1ccc(O)cc1)C(=O)N[C@@H](Cc1ccc(O)cc1)C(=O)N[C@@H](C)C(=O)N[C@@H](CCCNC(=N)N)C(=O)N[C@@H](CCCNC(=N)N)C(N)=O)[C@@H](C)CC (some centres not stated) [130E7] (Ac-[ξDap](ClAc)IAQELRRIGDEFNAYYARR-NH2)	–	–
> 1	0.015	> 1	> 1	–	Ac-CATQLRRFGDKLN-NH2	–	–
> 1	0.0075	> 1	0.228	–	Ac-CATQLRRFGDKLNFRQKLLN-NH2	–	–

Molecule	IC50 [1] [µM]	IC50 [2] [µM]	IC50 [3] [µM]	IC50 [4] [µM]	Kd ([4]; pH 7.4, 25 °C) [µM]	Kd ([2]; pH 7.4, 25 °C) [µM]	Kd ([3]; pH 7.4) [µM]
CC[C@H](C)[C@H](NC(=O)[C@H](CCCCN)NC(=O)[C@H](CCCNC(=N)N)NC(=O)[C@H](CC(C)C)NC(=O)[C@H](CCC(N)=O)NC(=O)[C@H](C)NC(=O)[C@H](C)NC(=O)[C@H](Cc1ccccc1)NC(=O)[C@H](CCC(=O)O)NC(=O)[C@@H]1CCCN1C(=O)[C@@H]1CCCN1C(=O)[C@H](CC(C)C)NC(=O)[C@H](CCC(=O)O)NC(=O)[C@H](C)NC(C)=O)C(=O)NCC(=O)N[C@@H](CC(=O)O)C(=O)N[C@@H](CCCCN)C(=O)N[C@H](C(=O)N[C@@H](Cc1ccc(O)cc1)C(=O)N[C@@H](CS)C(N)=O)C(C)C	> 1	> 1	> 1	–	–	–	–
CC[C@H](C)[C@H](NC(=O)[C@H](CCCNC(=N)N)NC(=O)[C@H](CCCNC(=N)N)NC(=O)[C@H](CC(C)C)NC(=O)[C@H](CCC(N)=O)NC(=O)[C@H](C)NC(=O)[C@H](CS)NC(=O)[C@H](CCC(=O)O)NC(=O)[C@H](CC(=O)O)NC(=O)[C@H](CCCCN)NC(=O)[C@H](CC(C)C)NC(=O)[C@H](CC(=O)O)NC(=O)[C@H](C)NC(=O)[C@@H]1CCCN1C(C)=O)C(=O)NCC(=O)N[C@@H](CC(=O)O)C(=O)N[C@@H](CCCCN)C(=O)N[C@H](C(=O)N[C@@H](CC(N)=O)C(=O)N[C@@H](CC(C)C)C(N)=O)C(C)C	> 1	0.431	> 1	–	–	–	–
CC[C@H](C)[C@H](NC(=O)[C@H](CCCNC(=N)N)NC(=O)[C@H](CCCNC(=N)N)NC(=O)[C@H](CC(C)C)NC(=O)[C@H](CCC(=O)O)NC(=O)[C@H](CCC(N)=O)NC(=O)[C@H](C)NC(=O)[C@@H](NC(=O)[C@H](CNC(=O)CCl)NC(C)=O)[C@@H](C)CC)C(=O)NCC(=O)N[C@@H](CC(=O)O)C(=O)N[C@@H](CCC(=O)O)C(=O)N[C@@H](Cc1ccccc1)C(=O)N[C@@H](CC(N)=O)C(=O)N[C@@H](C)C(=O)N[C@@H](Cc1ccc(O)cc1)C(=O)N[C@@H](Cc1ccc(O)cc1)C(=O)N[C@@H](C)C(=O)N[C@@H](CCCNC(=N)N)C(=O)N[C@@H](CCCNC(=N)N)C(N)=O [130E7] (Ac-[Dap](ClAc)IAQELRRIGDEFNAYYARR-NH2)	0.027	0.0087	0.0465	–	–	0.0026	0.0255
CC(=O)NC(CNC(=O)CCl)C(=O)N[C@@H](C)C(=O)N[C@H](C(=O)N[C@@H](CCC(N)=O)C(=O)N[C@@H](CC(C)C)C(=O)N[C@@H](CCCNC(=N)N)C(=O)N[C@@H](CCCNC(=N)N)C(=O)N[C@@H](Cc1ccccc1)C(=O)NCC(=O)N[C@@H](CC(=O)O)C(=O)N[C@@H](CCCCN)C(=O)N[C@@H](CC(C)C)C(=O)N[C@@H](CC(N)=O)C(=O)N[C@@H](Cc1ccccc1)C(=O)N[C@@H](CCCNC(=N)N)C(=O)N[C@@H](CCC(N)=O)C(=O)N[C@@H](CCCCN)C(=O)N[C@@H](CC(C)C)C(=O)N[C@@H](CC(C)C)C(=O)N[C@@H](CC(N)=O)C(N)=O)[C@@H](C)O (some centres not stated) [λ_hNOXA] (Ac-[ξDap](ClAc)ATQLRRFGDKLNFRQKLLN-NH2)	–	–	–	0.233	–	–	–

Source: BindingDB's records for doi:10.1021/acschembio.6b00962 (University of California Riverside, 2017)
